In assay [1] the target is Serine/threonine-protein kinase LATS1 (Homo sapiens) (UniProt O95835). As to the kind of experiment: Binding affinity to wild-type human partial length LATS1 (Q678 to V1130 residues) expressed in bacterial expression system assessed as residual binding level at 10 uM by Kinomescan method relative to control.
Assay [2] addresses Serine/threonine-protein kinase mTOR (Homo sapiens) (UniProt P42345). In words: Binding affinity to wild-type human partial length MTOR (L1382 to W2549 residues) expressed in mammalian expression system assessed as residual binding level at 10 uM by Kinomescan method relative to control.
The target in assay [3] is Ephrin type-B receptor 2 (Homo sapiens) (UniProt P29323). As to the kind of experiment: Binding affinity to wild-type human partial length EPHB2 (I597 to L902 residues) expressed in bacterial expression system assessed as residual binding level at 10 uM by Kinomescan method relative to control.
Assay [4] deals with Serine/threonine-protein kinase 17A (Homo sapiens) (UniProt Q9UEE5). As to the kind of experiment: Binding affinity to wild-type human partial length DRAK1 (R32 to E363 residues) expressed in bacterial expression system assessed as residual binding level at 10 uM by Kinomescan method relative to control.
For assay [5], the target named is Serine/threonine-protein kinase Nek4 (Homo sapiens) (UniProt P51957). In words: Binding affinity to wild-type human full length NEK4 (M1 to F841 residues) expressed in mammalian expression system assessed as residual binding level at 10 uM by Kinomescan method relative to control.
Chain of Serine/threonine-protein kinase Nek4 (Homo sapiens) (P51957 whole entry, looked up, the tested form may be a part): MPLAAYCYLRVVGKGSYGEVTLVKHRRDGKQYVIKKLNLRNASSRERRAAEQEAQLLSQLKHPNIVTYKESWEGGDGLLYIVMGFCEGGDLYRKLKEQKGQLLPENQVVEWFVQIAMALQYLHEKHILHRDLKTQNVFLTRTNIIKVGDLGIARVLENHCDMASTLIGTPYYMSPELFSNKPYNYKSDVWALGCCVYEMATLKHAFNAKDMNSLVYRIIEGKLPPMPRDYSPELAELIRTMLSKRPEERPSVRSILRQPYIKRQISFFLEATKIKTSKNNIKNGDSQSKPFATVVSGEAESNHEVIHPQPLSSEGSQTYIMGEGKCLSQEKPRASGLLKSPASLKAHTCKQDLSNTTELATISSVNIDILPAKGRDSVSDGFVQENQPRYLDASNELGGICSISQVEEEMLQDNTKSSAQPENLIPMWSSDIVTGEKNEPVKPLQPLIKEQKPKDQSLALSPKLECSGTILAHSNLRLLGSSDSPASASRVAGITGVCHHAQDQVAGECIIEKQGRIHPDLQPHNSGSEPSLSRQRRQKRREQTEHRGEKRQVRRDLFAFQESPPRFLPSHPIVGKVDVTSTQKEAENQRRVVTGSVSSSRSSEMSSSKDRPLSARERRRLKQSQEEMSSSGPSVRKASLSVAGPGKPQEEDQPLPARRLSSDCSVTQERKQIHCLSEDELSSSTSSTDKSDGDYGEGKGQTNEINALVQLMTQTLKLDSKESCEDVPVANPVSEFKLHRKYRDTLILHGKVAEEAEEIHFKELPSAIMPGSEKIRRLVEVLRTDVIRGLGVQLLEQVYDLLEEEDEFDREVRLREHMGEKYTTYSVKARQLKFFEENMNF
Assay [6] addresses Protein kinase C epsilon type (Homo sapiens) (UniProt Q02156). As to the kind of experiment: Binding affinity to wild-type human partial length PRKCE (A378 to P737 residues) expressed in mammalian expression system assessed as residual binding level at 10 uM by Kinomescan method relative to control.
Assay [7] has as its target Atypical kinase COQ8B, mitochondrial (Homo sapiens) (UniProt Q96D53). In words: Binding affinity to wild-type human full length ADCK4 (M1 to S544 residues) expressed in bacterial expression system assessed as residual binding level at 10 uM by Kinomescan method relative to control.
Assay [8] has as its target Mitogen-activated protein kinase 10 (Homo sapiens) (UniProt P53779). As to the kind of experiment: Binding affinity to wild-type human partial length JNK3 (V28 to Q422 residues) expressed in mammalian expression system assessed as residual binding level at 10 uM by Kinomescan method relative to control.
For assay [9], the system named is Leucine-rich repeat serine/threonine-protein kinase 2 (Homo sapiens), Q5S007 [G2019S]. As to the kind of experiment: Binding affinity to human partial length LRRK2 G2019S mutant (H970 to E2527 residues) expressed in mammalian expression system assessed as residual binding level at 10 uM by Kinomescan method relative to control.
The target in assay [10] is Serine/threonine-protein kinase VRK2 (Homo sapiens) (UniProt Q86Y07). As to the kind of experiment: Binding affinity to wild-type human partial length VRK2 (M1 to T336 residues) expressed in mammalian expression system assessed as residual binding level at 10 uM by Kinomescan method relative to control.
Assay [11] has as its target Tyrosine-protein kinase receptor Tie-1 (Homo sapiens) (UniProt P35590). In words: Binding affinity to wild-type human partial length TIE1 (T819 to A1138 residues) expressed in bacterial expression system assessed as residual binding level at 10 uM by Kinomescan method relative to control.
The target in assay [12] is Rho-associated protein kinase 2 (Homo sapiens) (UniProt O75116). As to the kind of experiment: Binding affinity to wild-type human partial length ROCK2 (M1 to T431 residues) expressed in mammalian expression system assessed as residual binding level at 10 uM by Kinomescan method relative to control.
In assay [13] the target is Serine/threonine-protein kinase Chk1 (Homo sapiens) (UniProt O14757). As to the kind of experiment: Binding affinity to wild-type human partial length CHEK1 (M1 to G289 residues) expressed in bacterial expression system assessed as residual binding level at 10 uM by Kinomescan method relative to control.
The target of assay [14] is Tyrosine-protein kinase BTK (Homo sapiens) (UniProt Q06187). As to the kind of experiment: Binding affinity to wild-type human full length BTK (M1 to S659 residues) expressed in mammalian expression system assessed as residual binding level at 10 uM by Kinomescan method relative to control.
The target in assay [15] is Calcium/calmodulin-dependent protein kinase type II subunit gamma (Homo sapiens) (UniProt Q13555). In words: Binding affinity to wild-type human partial length CAMK2G (R9 to A303 residues) expressed in bacterial expression system assessed as residual binding level at 10 uM by Kinomescan method relative to control.
Chain of Calcium/calmodulin-dependent protein kinase type II subunit gamma (Homo sapiens) (Q13555 whole entry, the tested form may be a part): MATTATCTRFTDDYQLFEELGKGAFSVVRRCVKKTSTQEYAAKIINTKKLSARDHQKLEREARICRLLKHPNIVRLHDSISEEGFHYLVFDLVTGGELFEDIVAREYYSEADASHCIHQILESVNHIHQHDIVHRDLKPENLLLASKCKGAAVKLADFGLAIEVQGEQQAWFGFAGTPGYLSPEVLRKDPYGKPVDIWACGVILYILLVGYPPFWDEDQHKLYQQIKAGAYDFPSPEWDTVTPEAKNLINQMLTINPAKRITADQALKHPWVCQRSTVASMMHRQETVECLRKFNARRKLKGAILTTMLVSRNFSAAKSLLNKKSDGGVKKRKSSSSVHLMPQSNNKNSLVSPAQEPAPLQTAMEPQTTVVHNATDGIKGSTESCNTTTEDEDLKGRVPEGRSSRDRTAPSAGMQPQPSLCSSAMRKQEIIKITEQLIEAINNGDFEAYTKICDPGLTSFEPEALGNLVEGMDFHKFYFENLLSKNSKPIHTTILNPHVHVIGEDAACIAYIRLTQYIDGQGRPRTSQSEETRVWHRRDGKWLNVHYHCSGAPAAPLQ
Assay [16] concerns the target Serine/threonine-protein kinase 32A (Homo sapiens) (UniProt Q8WU08). As to the kind of experiment: Binding affinity to wild-type human full length YANK1 (M1 to L396 residues) expressed in mammalian expression system assessed as residual binding level at 10 uM by Kinomescan method relative to control.
Assay [17] deals with Phosphatidylinositol 4-phosphate 3-kinase C2 domain-containing subunit beta (Homo sapiens) (UniProt O00750). As to the kind of experiment: Binding affinity to wild-type human partial length PIK3C2B (M1 to L1634 residues) expressed in mammalian expression system assessed as residual binding level at 10 uM by Kinomescan method relative to control.
Chain of Phosphatidylinositol 4-phosphate 3-kinase C2 domain-containing subunit beta (Homo sapiens) (O00750 whole entry, the tested form may be a part): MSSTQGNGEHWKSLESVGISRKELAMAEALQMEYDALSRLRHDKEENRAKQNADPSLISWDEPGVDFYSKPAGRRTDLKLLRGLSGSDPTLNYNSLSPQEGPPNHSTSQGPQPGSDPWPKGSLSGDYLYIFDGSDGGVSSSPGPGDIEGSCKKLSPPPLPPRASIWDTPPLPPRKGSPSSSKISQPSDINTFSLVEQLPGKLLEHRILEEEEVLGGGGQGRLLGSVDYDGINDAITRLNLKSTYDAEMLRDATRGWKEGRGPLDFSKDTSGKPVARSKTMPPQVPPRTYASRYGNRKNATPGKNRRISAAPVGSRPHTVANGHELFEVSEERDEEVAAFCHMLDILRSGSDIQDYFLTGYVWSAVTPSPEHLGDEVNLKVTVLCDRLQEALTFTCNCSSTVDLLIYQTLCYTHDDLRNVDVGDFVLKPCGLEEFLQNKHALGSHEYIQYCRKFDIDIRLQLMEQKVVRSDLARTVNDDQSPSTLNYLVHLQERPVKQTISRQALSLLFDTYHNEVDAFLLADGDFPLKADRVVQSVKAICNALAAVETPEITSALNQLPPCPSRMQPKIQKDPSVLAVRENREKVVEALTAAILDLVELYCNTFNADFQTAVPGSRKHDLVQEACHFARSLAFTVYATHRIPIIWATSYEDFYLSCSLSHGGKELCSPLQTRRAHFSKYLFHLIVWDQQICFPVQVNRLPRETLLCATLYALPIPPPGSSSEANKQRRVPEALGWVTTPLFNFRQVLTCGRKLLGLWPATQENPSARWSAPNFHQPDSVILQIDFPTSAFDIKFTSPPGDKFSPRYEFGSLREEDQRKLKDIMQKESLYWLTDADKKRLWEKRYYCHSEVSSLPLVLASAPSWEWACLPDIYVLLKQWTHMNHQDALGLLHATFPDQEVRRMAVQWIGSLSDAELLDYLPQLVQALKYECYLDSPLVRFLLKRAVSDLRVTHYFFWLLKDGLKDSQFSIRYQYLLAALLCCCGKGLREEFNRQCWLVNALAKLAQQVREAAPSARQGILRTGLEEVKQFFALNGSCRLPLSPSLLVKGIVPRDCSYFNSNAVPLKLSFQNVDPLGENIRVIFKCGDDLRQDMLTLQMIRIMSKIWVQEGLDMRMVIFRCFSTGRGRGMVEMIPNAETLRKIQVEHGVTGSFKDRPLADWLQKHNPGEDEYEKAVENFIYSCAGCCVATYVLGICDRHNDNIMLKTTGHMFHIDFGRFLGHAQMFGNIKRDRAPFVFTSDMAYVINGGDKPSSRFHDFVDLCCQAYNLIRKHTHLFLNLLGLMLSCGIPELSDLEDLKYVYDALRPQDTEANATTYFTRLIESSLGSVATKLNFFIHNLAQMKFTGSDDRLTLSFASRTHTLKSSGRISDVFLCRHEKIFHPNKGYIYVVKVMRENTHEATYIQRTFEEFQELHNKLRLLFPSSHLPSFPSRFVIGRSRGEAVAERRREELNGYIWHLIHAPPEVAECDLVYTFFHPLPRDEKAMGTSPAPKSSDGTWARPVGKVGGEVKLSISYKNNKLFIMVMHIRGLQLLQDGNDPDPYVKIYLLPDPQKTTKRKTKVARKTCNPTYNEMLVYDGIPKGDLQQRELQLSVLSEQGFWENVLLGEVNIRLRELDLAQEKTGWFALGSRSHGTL
The target in assay [18] is Receptor-type tyrosine-protein kinase FLT3 (Homo sapiens) (UniProt P36888). In words: Binding affinity to wild-type human partial length FLT3 (V592 to Y969 residues) expressed in bacterial expression system assessed as residual binding level at 10 uM by Kinomescan method relative to control.
Assay [19] concerns the target Serine/threonine-protein kinase 32B (Homo sapiens) (UniProt Q9NY57). In words: Binding affinity to wild-type human full length YANK2 (M1 to S414 residues) expressed in bacterial expression system assessed as residual binding level at 10 uM by Kinomescan method relative to control.
Assay [20] has as its target Fibroblast growth factor receptor 2 (Homo sapiens) (UniProt P21802). As to the kind of experiment: Binding affinity to wild-type human partial length FGFR2 (D457 to E769 residues) expressed in bacterial expression system assessed as residual binding level at 10 uM by Kinomescan method relative to control.
A further assay has as its system Neutrophil. In words: Inhibition of PMA-induced superoxide production in C57BL6 mouse neutrophils at 10 uM preincubated for 30 mins followed by PMA stimulation and measured after 30 mins by luminol-lucignenin based luminescence assay. In kind it is functional, cell-based.
For assay [21], the target named is Wee1-like protein kinase (Homo sapiens) (UniProt P30291). In words: Binding affinity to wild-type human partial length WEE1 (M291 to K575 residues) expressed in bacterial expression system assessed as residual binding level at 10 uM by Kinomescan method relative to control.
Chain of Wee1-like protein kinase (Homo sapiens) (P30291 whole entry, looked up, the tested form may be a part): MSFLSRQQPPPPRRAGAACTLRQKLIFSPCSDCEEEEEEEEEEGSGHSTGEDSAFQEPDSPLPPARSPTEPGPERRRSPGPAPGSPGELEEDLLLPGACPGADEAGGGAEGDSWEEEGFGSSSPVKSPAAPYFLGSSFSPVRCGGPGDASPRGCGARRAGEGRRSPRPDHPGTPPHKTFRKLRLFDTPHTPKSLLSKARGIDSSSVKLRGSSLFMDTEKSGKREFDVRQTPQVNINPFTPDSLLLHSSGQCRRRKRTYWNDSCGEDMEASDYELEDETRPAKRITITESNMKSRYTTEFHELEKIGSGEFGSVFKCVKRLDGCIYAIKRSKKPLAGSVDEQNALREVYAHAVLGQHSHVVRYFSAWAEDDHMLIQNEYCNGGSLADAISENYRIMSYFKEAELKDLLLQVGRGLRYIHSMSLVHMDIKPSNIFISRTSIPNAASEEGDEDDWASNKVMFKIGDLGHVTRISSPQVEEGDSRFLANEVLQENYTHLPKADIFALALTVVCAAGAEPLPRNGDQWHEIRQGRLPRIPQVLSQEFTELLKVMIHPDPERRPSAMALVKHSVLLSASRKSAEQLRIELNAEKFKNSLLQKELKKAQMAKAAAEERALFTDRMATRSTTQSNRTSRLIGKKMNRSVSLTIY
Assay [22] has as its target Ribosomal protein S6 kinase alpha-2 (Homo sapiens) (UniProt Q15349). In words: Binding affinity to wild-type human partial length N- terminal RSK3 kinase domain 1 (M1 to Q385 residues) expressed in bacterial expression system assessed as residual binding level at 10 uM by Kinomescan method relative to control.
The target of assay [23] is Dual specificity mitogen-activated protein kinase kinase 5 (Homo sapiens) (UniProt Q13163). In words: Binding affinity to wild-type human partial length MEK5 (L98 to P448 residues) expressed in mammalian expression system assessed as residual binding level at 10 uM by Kinomescan method relative to control.
Chain of Dual specificity mitogen-activated protein kinase kinase 5 (Homo sapiens) (Q13163 whole entry, the tested form may be a part): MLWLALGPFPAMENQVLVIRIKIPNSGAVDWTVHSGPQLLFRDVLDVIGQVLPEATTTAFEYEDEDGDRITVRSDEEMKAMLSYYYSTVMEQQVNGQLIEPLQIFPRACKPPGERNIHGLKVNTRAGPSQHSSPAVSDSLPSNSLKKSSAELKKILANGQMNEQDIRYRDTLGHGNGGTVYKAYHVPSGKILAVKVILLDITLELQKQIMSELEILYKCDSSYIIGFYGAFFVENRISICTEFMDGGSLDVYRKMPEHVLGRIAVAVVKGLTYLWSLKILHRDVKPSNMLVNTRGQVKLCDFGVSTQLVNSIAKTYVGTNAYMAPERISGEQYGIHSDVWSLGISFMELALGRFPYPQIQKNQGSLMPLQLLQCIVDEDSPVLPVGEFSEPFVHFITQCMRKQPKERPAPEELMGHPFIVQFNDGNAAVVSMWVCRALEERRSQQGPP

The structures appear in SMILES notation. Calls of active or inactive are those of the source. The calls are words filed in the database; no cut-off is given here.

Chain of Serine/threonine-protein kinase 32A (Homo sapiens) (Q8WU08 whole entry, the tested form may be a part): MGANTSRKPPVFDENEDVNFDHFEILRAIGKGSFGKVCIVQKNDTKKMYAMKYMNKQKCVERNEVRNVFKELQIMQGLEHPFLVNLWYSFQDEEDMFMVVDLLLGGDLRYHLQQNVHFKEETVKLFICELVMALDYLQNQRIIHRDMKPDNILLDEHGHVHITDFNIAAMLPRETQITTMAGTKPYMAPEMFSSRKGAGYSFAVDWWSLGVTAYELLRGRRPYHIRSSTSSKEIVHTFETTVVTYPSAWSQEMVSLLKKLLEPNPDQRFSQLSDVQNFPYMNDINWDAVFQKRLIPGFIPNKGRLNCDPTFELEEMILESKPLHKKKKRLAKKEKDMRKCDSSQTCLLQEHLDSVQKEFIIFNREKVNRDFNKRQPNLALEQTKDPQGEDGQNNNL
Chain of Atypical kinase COQ8B, mitochondrial (Homo sapiens) (Q96D53 whole entry, the tested form may be a part): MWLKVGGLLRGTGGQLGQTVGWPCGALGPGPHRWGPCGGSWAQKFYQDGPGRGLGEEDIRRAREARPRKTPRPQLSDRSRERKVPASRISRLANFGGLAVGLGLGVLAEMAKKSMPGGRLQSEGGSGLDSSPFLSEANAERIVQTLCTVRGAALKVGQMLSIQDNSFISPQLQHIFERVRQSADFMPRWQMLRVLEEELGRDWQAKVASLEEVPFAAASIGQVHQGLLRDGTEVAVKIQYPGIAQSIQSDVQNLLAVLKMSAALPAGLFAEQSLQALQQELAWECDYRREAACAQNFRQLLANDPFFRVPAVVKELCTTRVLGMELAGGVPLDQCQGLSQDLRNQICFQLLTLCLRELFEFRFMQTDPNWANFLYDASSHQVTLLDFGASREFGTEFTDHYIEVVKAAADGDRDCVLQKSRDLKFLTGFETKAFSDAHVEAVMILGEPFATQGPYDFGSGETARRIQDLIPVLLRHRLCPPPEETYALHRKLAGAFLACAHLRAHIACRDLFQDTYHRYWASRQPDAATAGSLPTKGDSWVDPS

In the case of `CC(C)N1C(=O)C(NCCCN(C)C)=C(c2cn(C)c3ccccc23)C1=O.Cl`, the Activity in [1] stood at 96%; in [2] it was 87%; in assay [3] it was 97%; in [4], 97%; in assay [5], 96%; in assay [6] it was 94%. In addition, the Activity stood at 99% in assay [7]; 85% in [8]; 91% in assay [9]; 95% in assay [10]; 92% in assay [11]; 100% in assay [12]. Also, the Activity in [13] is 100%; in [14], 100%; in assay [15], 83%; in assay [16] it was 67%; in [17] it was 81%; in assay [18] it was 100%. The Activity in assay [19] came out at 99%; in [20], 100%; in assay [21], 100%; in [22], 100%; in assay [23], 77%. The inhibition entry in the assay with Neutrophil is “inactive”.

The values above are taken from ChEMBL document CHEMBL4304811, “Development of a Water-Soluble Indolylmaleimide Derivative IM-93 Showing Dual Inhibition of Ferroptosis and NETosis” (ACS Med Chem Lett, 2019).
